Measurements as given in patent EP4745135A1 (Gluetacs Therapeutics (Shanghai) Co., Ltd., priority 2023, dated 2025).

Legend:
IKZF3 = biological target: T1, IKZF3 (Homo sapiens, UniProt Q96SW2+Q9UKT9); experiment: Western blot, degradation of substrate protein in hPBMCs; format: cell-based
T1 construct: effects of the compounds of the present disclosure on the expression of target proteins in cells; endogenous in cells; host or cells: human PBMCs (Milecell Biotechnologies)
Protocol: (§1) Conventional Western blot assay was performed to evaluate the effects of the compounds of the present disclosure on the expression of target proteins in cells. • (1) Cell Seeding and Protein Harvesting: Human peripheral blood mononuclear cells (hPBMCs) at a density of 1×10^6 cells/mL were thawed according to the PBMC Recovery Protocol (Milecell Biotechnologies Inc, Shanghai). […] After 24 hours of compounds treatment, cells were harvested and lysed in RIPA protein lysate containing protease inhibitors on ice for 30 min, followed by centrifugation. The supernatant was aspirated as the extracted total cell protein. The protein concentration of the supernatant was determined using the conventional BCA (Bicinchoninic Acid) assay. • (2) To the collected supernatant, 5X SDS sample loading buffer was added, followed by denaturation at 95°C for 5 minutes. The denatured samples were then separated by SDS-PAGE electrophoresis on a polyacrylamide gel, transferred onto a nitrocellulose membrane (0.45 µm NC membrane), blocked with blocking buffer at room temperature for 1 hour, and subjected to antibody incubation and development procedures according to the antibody manufacturer's instructions (Cell Signaling Technology Company).
(§2) Half-Maximal Degradation Concentration value (the drug concentration required for degrading proteins by 50%, abbreviated as DC50) reads method: comparing the grayscale values of Western blot bands from drug-treated samples with those from blank DMSO-treated controls, and identifying the drug concentration range at which the grayscale value is half that of the DMSO-treated control bands.
(§3) DC50 values can be calculated using ImageJ software to measure grayscale values of Western blot bands from drug-treated samples. The concentration-response curve is fitted to estimate the drug concentration corresponding to half the grayscale value.
(§4) Target protein remaining (%) refers to the percentage of target protein remaining in cells after treatment with protein degrader compounds.
(§5) Calculation method for target protein remaining (%): Use ImageJ software to measure grayscale values of Western blot bands from drug (protein degrader)-treated samples. The grayscale value of drug-treated bands is divided by that of internal control protein bands, and the resulting quotient is normalized to obtain the relative percentage of remaining target protein after protein degrader treatment.
(§6) Target protein degradation rate (%) = 1−target protein remaining (%). [formula]

WEE1 = biological target: T2, WEE1 (Homo sapiens, UniProt P30291+Q96SW2); experiment: as above; format: cell-based
T2 construct: effects of the compounds of the present disclosure on the expression of target proteins in cells; endogenous in cells; host or cells: human PBMCs (Milecell Biotechnologies)
T2 sequence (P30291 whole entry): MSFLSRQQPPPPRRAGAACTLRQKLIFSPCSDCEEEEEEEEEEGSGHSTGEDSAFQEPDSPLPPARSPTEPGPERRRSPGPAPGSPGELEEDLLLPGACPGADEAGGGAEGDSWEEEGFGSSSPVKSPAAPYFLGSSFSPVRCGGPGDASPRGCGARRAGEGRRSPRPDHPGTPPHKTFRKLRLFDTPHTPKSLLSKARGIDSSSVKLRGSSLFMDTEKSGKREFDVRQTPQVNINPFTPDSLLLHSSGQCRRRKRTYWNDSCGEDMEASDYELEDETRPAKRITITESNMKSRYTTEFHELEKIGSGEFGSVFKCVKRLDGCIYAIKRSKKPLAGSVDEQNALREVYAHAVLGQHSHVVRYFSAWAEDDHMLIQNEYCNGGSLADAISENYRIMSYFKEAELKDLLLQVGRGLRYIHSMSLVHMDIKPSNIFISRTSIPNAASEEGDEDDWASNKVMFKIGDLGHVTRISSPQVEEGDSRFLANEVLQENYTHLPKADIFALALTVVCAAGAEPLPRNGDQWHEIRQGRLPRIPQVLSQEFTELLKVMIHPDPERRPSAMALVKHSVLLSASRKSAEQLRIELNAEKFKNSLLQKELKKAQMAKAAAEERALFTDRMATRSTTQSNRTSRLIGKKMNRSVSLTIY
T2 sequence (Q96SW2 whole entry): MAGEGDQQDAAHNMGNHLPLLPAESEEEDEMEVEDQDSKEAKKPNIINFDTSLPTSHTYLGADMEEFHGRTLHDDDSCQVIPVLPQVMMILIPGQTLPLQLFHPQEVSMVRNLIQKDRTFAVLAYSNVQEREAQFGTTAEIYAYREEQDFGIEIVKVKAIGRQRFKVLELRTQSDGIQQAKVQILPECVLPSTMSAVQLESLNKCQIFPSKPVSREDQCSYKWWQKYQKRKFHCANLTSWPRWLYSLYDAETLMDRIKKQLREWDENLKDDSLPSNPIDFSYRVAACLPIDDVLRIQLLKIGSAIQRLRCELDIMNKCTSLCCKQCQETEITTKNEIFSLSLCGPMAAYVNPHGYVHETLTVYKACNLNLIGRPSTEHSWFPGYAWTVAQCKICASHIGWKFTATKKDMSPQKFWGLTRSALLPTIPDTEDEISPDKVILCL
T2 sequence (Q16531 whole entry partner): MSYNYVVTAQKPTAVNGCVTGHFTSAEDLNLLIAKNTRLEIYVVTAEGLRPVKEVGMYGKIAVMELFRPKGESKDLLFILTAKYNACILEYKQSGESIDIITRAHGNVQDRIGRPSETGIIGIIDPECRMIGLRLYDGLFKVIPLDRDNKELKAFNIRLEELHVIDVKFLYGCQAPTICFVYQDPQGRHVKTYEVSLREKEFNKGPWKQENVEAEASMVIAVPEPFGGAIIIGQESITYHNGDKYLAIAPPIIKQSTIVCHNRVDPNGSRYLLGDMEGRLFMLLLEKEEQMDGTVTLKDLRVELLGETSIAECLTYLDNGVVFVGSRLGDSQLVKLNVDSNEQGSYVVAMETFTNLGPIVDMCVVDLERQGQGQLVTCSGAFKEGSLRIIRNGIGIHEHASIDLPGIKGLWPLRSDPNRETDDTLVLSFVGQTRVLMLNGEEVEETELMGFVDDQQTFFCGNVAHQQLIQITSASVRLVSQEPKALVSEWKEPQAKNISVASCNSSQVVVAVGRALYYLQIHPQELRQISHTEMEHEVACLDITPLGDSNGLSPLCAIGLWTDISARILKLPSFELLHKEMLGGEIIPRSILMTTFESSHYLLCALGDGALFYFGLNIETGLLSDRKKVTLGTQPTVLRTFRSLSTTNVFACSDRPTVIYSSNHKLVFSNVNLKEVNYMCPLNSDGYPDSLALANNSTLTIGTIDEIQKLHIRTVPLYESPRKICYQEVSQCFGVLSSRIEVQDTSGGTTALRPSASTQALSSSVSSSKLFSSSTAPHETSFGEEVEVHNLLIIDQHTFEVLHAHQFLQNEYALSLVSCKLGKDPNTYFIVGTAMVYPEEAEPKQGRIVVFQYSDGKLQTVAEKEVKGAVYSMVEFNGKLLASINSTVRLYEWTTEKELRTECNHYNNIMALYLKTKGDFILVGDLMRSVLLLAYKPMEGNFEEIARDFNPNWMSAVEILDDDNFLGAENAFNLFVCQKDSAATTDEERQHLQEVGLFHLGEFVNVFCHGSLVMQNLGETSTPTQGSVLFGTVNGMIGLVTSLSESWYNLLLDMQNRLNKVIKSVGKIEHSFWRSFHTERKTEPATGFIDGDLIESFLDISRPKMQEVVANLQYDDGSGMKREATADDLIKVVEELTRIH
Protocol: as §1, §2, §3, §4, §5, §6

IKZF1 = biological target: T3, IKZF1 (Homo sapiens, UniProt Q13422+Q96SW2); experiment: as above; format: cell-based
T3 construct: effects of the compounds of the present disclosure on the expression of target proteins in cells; endogenous in cells; host or cells: human PBMCs (Milecell Biotechnologies)
T3 sequence (Q13422 whole entry): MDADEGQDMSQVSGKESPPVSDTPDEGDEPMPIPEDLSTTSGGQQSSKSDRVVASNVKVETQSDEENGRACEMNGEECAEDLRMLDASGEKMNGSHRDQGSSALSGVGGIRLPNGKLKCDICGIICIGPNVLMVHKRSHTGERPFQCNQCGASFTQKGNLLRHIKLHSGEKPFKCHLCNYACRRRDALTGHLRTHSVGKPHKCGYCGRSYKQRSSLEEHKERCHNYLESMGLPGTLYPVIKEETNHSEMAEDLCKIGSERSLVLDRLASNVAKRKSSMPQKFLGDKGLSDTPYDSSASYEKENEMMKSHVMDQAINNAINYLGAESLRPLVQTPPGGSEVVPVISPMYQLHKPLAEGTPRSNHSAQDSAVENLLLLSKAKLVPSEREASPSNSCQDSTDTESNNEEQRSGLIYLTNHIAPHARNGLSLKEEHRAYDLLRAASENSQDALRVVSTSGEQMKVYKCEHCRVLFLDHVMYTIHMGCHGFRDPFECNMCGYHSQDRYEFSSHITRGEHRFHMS
T3 sequence (Q96SW2 whole entry): as the sequence (Q96SW2 whole entry) above
T3 sequence (Q16531 whole entry partner): as the sequence (Q16531 whole entry partner) above
Protocol: as §1, §2, §3, §4, §5, §6

IKZF2 = biological target: T4, IKZF2 (Homo sapiens, UniProt Q96SW2+Q9UKS7); experiment: as above; format: cell-based
T4 construct: effects of the compounds of the present disclosure on the expression of target proteins in cells; endogenous in cells; host or cells: human PBMCs (Milecell Biotechnologies)
T4 sequence (Q9UKS7 whole entry): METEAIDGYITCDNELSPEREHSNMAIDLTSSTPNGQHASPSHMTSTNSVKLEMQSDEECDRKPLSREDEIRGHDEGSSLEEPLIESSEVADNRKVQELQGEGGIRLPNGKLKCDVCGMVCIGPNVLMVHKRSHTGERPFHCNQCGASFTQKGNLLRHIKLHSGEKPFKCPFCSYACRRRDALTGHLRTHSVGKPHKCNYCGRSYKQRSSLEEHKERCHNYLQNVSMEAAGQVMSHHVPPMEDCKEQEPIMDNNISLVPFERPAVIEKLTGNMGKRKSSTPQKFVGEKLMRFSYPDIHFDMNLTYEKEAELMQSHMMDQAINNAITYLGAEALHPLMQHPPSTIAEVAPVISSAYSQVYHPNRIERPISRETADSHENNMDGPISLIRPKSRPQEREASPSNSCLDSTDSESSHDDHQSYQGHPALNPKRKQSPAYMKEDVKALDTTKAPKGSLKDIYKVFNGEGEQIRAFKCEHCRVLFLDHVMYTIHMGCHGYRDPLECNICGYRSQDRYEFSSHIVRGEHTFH
T4 sequence (Q96SW2 whole entry): as the sequence (Q96SW2 whole entry) above
T4 sequence (Q16531 whole entry partner): as the sequence (Q16531 whole entry partner) above
Protocol: as §1, §2, §3, §4, §5, §6

CK1α = biological target: T5, CK1α (Homo sapiens, UniProt P48729+Q96SW2); experiment: as above; format: cell-based
T5 construct: effects of the compounds of the present disclosure on the expression of target proteins in cells; endogenous in cells; host or cells: human PBMCs (Milecell Biotechnologies)
T5 sequence (P48729 whole entry): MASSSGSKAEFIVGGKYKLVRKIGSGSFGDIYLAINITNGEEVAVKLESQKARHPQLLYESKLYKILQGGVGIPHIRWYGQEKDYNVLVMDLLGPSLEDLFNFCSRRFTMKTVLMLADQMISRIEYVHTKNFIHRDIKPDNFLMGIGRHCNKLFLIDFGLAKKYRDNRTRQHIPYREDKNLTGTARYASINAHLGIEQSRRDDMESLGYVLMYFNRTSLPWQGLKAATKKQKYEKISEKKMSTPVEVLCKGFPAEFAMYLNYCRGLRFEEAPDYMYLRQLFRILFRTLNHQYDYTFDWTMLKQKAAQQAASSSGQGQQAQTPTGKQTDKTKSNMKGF
T5 sequence (Q96SW2 whole entry): as the sequence (Q96SW2 whole entry) above
T5 sequence (Q16531 whole entry partner): as the sequence (Q16531 whole entry partner) above
Protocol: as §1, §2, §3, §4, §5, §6

GSPT1 = experiment: as above; format: cell-based, Human
Protocol: as §1, §2, §3, §4, §5, §6

[1] = biological target: T6, human Cereblon WT GST-tagged protein (Homo sapiens, UniProt Q96SW2); experiment: CRBN-binding affinity, HTRF (CEREBLON BINDING kit); details: for inhibition at 0.5 µM: read-out: Inhibition Rate at 0.5 µM (%); for inhibition at 2 µM: read-out: Inhibition Rate at 2 µM (%)
T6 construct: purchased CISBIO 64BDCRBNPEH
T6 sequence (Q96SW2 whole entry): as the sequence (Q96SW2 whole entry) above
Protocol: The CEREBLON BINDING kits (specification: 10,000 tests; product number: Catalog # 64BDCRBNPEH; CISBIO company) was used to determine the CRBN binding ability of the compounds to be tested through a HTRF method (homogeneous time-resolved fluorescence). The specific methods are as follows: • 1. […] Specifically, diluent #9 (1X) solution was used as the diluent, and multiple concentration gradients were set. […] Then, 2.5 µL of human Cereblon WT GST-tagged protein solution was added to each well. Finally, 5 µL of the thoroughly mixed Thalidomide-Re reagent and GST Eu antibody working solution were added to each of the aforementioned wells. […] The blank control wells were sequentially added with 2.5 µL of diluent #9 (1X) solution, 2.5 µL of PROTAC binding buffer, and 5 µL of thoroughly mixed Thalidomide-Re reagent and GST Eu antibody working solution. • 4.

[2] = Western blot, 24 hours of compound treatment, compounds tested at 50 nM and 500 nM (concentration for the table not stated)
[3] = 24 hours treatment, compounds at 50 nM and 500 nM (concentration behind the class not stated)

T1 sequence (Q9UKT9 whole entry): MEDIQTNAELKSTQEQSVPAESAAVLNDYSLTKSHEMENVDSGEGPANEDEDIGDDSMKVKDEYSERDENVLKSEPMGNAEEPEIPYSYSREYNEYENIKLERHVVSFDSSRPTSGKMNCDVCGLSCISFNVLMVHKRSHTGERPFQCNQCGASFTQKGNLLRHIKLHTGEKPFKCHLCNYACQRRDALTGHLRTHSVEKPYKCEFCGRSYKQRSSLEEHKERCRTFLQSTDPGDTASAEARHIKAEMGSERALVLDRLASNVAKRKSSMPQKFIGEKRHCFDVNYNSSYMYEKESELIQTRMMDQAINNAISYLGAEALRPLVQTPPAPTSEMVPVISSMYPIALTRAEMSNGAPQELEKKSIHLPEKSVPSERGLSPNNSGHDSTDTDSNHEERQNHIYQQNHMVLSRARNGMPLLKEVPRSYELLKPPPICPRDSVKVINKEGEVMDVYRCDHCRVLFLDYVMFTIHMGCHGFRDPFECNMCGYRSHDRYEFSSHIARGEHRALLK
T1 sequence (Q96SW2 whole entry): as the sequence (Q96SW2 whole entry) above
T1 sequence (Q16531 whole entry partner): as the sequence (Q16531 whole entry partner) above

O=C1CCC(N2Cc3c(CN4CCN(c5ccc(C(F)(F)F)cn5)CC4)cccc3C2=S)C(=O)N1 (stereo not drawn) [GT-08702, 3-(1-thioxo-4-((4-(5-(trifluoromethyl)pyridin-2-yl)piperazin-1-yl)methyl)isoindolin-2-yl)piperidine-2,6-dione]
IKZF3 substrate protein remaining % (IKZF3; [2]): B (80%< substrate protein remaining %≤ 100%) | Wee1 substrate protein remaining % (WEE1; [2]): A (0% ≤ substrate protein remaining % ≤ 80%) | IKZF 1 substrate protein remaining % (IKZF1; [2]): B (80%< substrate protein remaining %≤ 100%) | IKZF2 substrate protein remaining % (IKZF2; [2]): B (80%< substrate protein remaining %≤ 100%) | CK1α substrate protein remaining % (CK1α; [2]): B (80%< substrate protein remaining %≤ 100%) | GSPT1 substrate protein remaining % (GSPT1; [2]): B (80%< substrate protein remaining %≤ 100%)

CC(C)c1cc2c(N3CCN(Cc4cccc5c4CN(C4CCC(=O)NC4=O)C5=S)CC3)ncnc2s1 (stereo not drawn) [GT-08915, 3-(4-((4-(6-isopropylthieno[2,3-d]pyrimidin-4-yl)piperazin-1-yl)methyl)-1-thioxoisoindolin-2-yl)piperidine-2,6-dione]
IKZF3 substrate protein remaining % (IKZF3; [3]): B (80%< substrate protein remaining %≤ 100%) | Wee1 substrate protein remaining % (WEE1; [3]): A (0% ≤ substrate protein remaining % ≤ 80%) | IKZF 1 substrate protein remaining % (IKZF1; [3]): B (80%< substrate protein remaining %≤ 100%) | IKZF2 substrate protein remaining % (IKZF2; [3]): B (80%< substrate protein remaining %≤ 100%) | CK1α substrate protein remaining % (CK1α; [3]): B (80%< substrate protein remaining %≤ 100%) | GSPT1 substrate protein remaining % (GSPT1; [3]): B (80%< substrate protein remaining %≤ 100%)

Cc1csc2ncnc(C3=CCN(Cc4cccc5c4CN(C4CCC(=O)NC4=O)C5=S)CC3)c12 (stereo not drawn) [GT-08938, 3-(4-((4-(5-methylthieno[2,3-d]pyrimidin-4-yl)-3,6-dihydropyridin-1(2H)-yl)methyl)-1-thioxoisoindolin-2-yl)piperidine-2,6-dione]
IKZF3 substrate protein remaining % (IKZF3; [3]): B (80%< substrate protein remaining %≤ 100%) | Wee1 substrate protein remaining % (WEE1; [3]): A (0% ≤ substrate protein remaining % ≤ 80%) | IKZF 1 substrate protein remaining % (IKZF1; [3]): B (80%< substrate protein remaining %≤ 100%) | IKZF2 substrate protein remaining % (IKZF2; [3]): B (80%< substrate protein remaining %≤ 100%) | CK1α substrate protein remaining % (CK1α; [3]): B (80%< substrate protein remaining %≤ 100%) | GSPT1 substrate protein remaining % (GSPT1; [3]): B (80%< substrate protein remaining %≤ 100%)

O=C1CCC(N2Cc3c(CN4CC=C(c5cccc(Cl)c5Cl)CC4)cccc3C2=S)C(=O)N1 (stereo not drawn) [GT-08270, 3-(4-((4-(2,3-dichlorophenyl)-3,6-dihydropyridin-1(2H)-yl)methyl)-1-thioxoisoindolin-2-yl)piperidine-2,6-dione]
IKZF3 substrate protein remaining % (IKZF3; [2]): B (80%< substrate protein remaining %≤ 100%) | Wee1 substrate protein remaining % (WEE1; [2]): A (0% ≤ substrate protein remaining % ≤ 80%) | IKZF 1 substrate protein remaining % (IKZF1; [2]): B (80%< substrate protein remaining %≤ 100%) | IKZF2 substrate protein remaining % (IKZF2; [2]): B (80%< substrate protein remaining %≤ 100%) | CK1α substrate protein remaining % (CK1α; [2]): B (80%< substrate protein remaining %≤ 100%) | GSPT1 substrate protein remaining % (GSPT1; [2]): A (0% ≤ substrate protein remaining % ≤ 80%)

O=C1CCC(N2Cc3c(CN4CCC(c5cccc(F)c5Cl)CC4)cccc3C2=S)C(=O)N1 (stereo not drawn) [GT-08321, 3-(4-((4-(2-chloro-3-fluorophenyl)piperidin-1-yl)methyl)-1-thioxoisoindolin-2-yl)piperidine-2,6-dione]
IKZF3 substrate protein remaining % (IKZF3; [3]): A (0% ≤ substrate protein remaining % ≤ 80%) | Wee1 substrate protein remaining % (WEE1; [3]): A (0% ≤ substrate protein remaining % ≤ 80%) | IKZF 1 substrate protein remaining % (IKZF1; [3]): B (80%< substrate protein remaining %≤ 100%) | IKZF2 substrate protein remaining % (IKZF2; [3]): B (80%< substrate protein remaining %≤ 100%) | CK1α substrate protein remaining % (CK1α; [3]): B (80%< substrate protein remaining %≤ 100%) | GSPT1 substrate protein remaining % (GSPT1; [3]): B (80%< substrate protein remaining %≤ 100%)

O=C1CCC(N2Cc3c(CN4CCN(c5c(Cl)ccnc5Cl)CC4)cccc3C2=S)C(=O)N1 (stereo not drawn) [GT-08725, 3-(4-((4-(2,4-dichloropyridin-3-yl)piperazin-1-yl)methyl)-1-thioxoisoindolin-2-yl)piperidine-2,6-dione]
IKZF3 substrate protein remaining % (IKZF3; [2]): B (80%< substrate protein remaining %≤ 100%) | Wee1 substrate protein remaining % (WEE1; [2]): A (0% ≤ substrate protein remaining % ≤ 80%) | IKZF 1 substrate protein remaining % (IKZF1; [2]): B (80%< substrate protein remaining %≤ 100%) | IKZF2 substrate protein remaining % (IKZF2; [2]): B (80%< substrate protein remaining %≤ 100%) | CK1α substrate protein remaining % (CK1α; [2]): B (80%< substrate protein remaining %≤ 100%) | GSPT1 substrate protein remaining % (GSPT1; [2]): A (0% ≤ substrate protein remaining % ≤ 80%)

Cc1ccccc1N1CCN(Cc2cccc3c2CN(C2CCC(=O)NC2=O)C3=S)CC1 (stereo not drawn) [GT-08497, 3-(1-thioxo-4-((4-(o-tolyl)piperazin-1-yl)methyl)isoindolin-2-yl)piperidine-2,6-dione]
IKZF3 substrate protein remaining % (IKZF3; [2]): B (80%< substrate protein remaining %≤ 100%) | Wee1 substrate protein remaining % (WEE1; [2]): A (0% ≤ substrate protein remaining % ≤ 80%) | IKZF 1 substrate protein remaining % (IKZF1; [2]): A (0% ≤ substrate protein remaining % ≤ 80%) | IKZF2 substrate protein remaining % (IKZF2; [2]): A (0% ≤ substrate protein remaining % ≤ 80%) | CK1α substrate protein remaining % (CK1α; [2]): B (80%< substrate protein remaining %≤ 100%) | GSPT1 substrate protein remaining % (GSPT1; [2]): A (0% ≤ substrate protein remaining % ≤ 80%)

O=C1CCC(N2Cc3cc(CN4CCN(c5c(Cl)cncc5Cl)CC4)ccc3C2=S)C(=O)N1 (stereo not drawn) [GT-09246, 3-(5-((4-(3,5-dichloropyridin-4-yl)piperazin-1-yl)methyl)-1-thioxoisoindolin-2-yl)piperidine-2,6-dione]
inhibition at 0.5 µM [1]: 80 to 100% | inhibition at 2 µM [1]: 80 to 100%

O=C1CCC(N2Cc3cc(CN4CCN(c5ncc6ccsc6n5)CC4)ccc3C2=S)C(=O)N1 (stereo not drawn) [GT-09303, 3-(5-((4-(thieno[2,3-d]pyrimidin-2-yl)piperazin-1-yl)methyl)-1-thioxoisoindolin-2-yl)piperidine-2,6-dione]
inhibition at 0.5 µM [1]: 60 to 80% | inhibition at 2 µM [1]: 80 to 100%

O=C1CCC(N2Cc3cc(CN4CCC(N5CCOc6cc(F)ccc65)CC4)ccc3C2=S)C(=O)N1 (stereo not drawn) [GT-09272, 3-(5-((4-(7-fluoro-2,3-dihydro-4H-benzo[b][1,4]oxazin-4-yl)piperidin-1-yl)methyl)-1-thioxoisoindolin-2-yl)piperidine-2,6-dione]
inhibition at 0.5 µM [1]: 60 to 80% | inhibition at 2 µM [1]: 80 to 100%

O=C1CCC(N2Cc3cc(CN4CCN(c5ccnc(Cl)c5F)CC4)ccc3C2=S)C(=O)N1 (stereo not drawn) [GT-09239, 3-(5-((4-(2-chloro-3-fluoropyridin-4-yl)piperazin-1-yl)methyl)-1-thioxoisoindolin-2-yl)piperidine-2,6-dione]
inhibition at 0.5 µM [1]: 60 to 80% | inhibition at 2 µM [1]: 80 to 100%

CC1(C)CC(c2ccc(Cl)cc2)=C(CN2CCN(Cc3cccc4c3CN(C3CCC(=O)NC3=O)C4=S)CC2)CO1 (stereo not drawn) [GT-08296, 3-(4-((4-((4-(4-chlorophenyl)-6,6-dimethyl-5,6-dihydro-2H-pyran-3-yl)methyl)piperazin-1-yl)methyl)-1-thioxoisoindolin-2-yl)piperidine-2,6-dione]
inhibition at 0.5 µM [1]: 40 to 53% | inhibition at 2 µM [1]: 60 to 80%

Cc1nc(C2CCN(Cc3ccc4c(c3)CN(C3CCC(=O)NC3=O)C4=S)CC2)c2c(-c3ccccc3)csc2n1 (stereo not drawn) [GT-09308]
inhibition at 0.5 µM [1]: 40 to 53% | inhibition at 2 µM [1]: 80 to 100%
